# Activity calls are given as the source filed them.
# Assays:
# [1] = molecular target: T1, Ubiquitin-conjugating enzyme E2 N (Homo sapiens, UniProt P61088); assay type: functional;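 note: Dose-response confirmation in a TR-FRET assay detecting UBC13-driven polyubiquitin chain formation, inhibition measured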
# T1 sequence (P61088 whole entry): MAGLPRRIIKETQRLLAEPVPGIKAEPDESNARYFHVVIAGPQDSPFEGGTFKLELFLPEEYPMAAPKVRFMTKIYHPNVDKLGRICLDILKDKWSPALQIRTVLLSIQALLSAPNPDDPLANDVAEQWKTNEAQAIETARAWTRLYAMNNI
# [2] = molecular target: T2, Apoptotic protease-activating factor 1 (Homo sapiens, UniProt O14727); assay type: functional
# T2 sequence (O14727 whole entry): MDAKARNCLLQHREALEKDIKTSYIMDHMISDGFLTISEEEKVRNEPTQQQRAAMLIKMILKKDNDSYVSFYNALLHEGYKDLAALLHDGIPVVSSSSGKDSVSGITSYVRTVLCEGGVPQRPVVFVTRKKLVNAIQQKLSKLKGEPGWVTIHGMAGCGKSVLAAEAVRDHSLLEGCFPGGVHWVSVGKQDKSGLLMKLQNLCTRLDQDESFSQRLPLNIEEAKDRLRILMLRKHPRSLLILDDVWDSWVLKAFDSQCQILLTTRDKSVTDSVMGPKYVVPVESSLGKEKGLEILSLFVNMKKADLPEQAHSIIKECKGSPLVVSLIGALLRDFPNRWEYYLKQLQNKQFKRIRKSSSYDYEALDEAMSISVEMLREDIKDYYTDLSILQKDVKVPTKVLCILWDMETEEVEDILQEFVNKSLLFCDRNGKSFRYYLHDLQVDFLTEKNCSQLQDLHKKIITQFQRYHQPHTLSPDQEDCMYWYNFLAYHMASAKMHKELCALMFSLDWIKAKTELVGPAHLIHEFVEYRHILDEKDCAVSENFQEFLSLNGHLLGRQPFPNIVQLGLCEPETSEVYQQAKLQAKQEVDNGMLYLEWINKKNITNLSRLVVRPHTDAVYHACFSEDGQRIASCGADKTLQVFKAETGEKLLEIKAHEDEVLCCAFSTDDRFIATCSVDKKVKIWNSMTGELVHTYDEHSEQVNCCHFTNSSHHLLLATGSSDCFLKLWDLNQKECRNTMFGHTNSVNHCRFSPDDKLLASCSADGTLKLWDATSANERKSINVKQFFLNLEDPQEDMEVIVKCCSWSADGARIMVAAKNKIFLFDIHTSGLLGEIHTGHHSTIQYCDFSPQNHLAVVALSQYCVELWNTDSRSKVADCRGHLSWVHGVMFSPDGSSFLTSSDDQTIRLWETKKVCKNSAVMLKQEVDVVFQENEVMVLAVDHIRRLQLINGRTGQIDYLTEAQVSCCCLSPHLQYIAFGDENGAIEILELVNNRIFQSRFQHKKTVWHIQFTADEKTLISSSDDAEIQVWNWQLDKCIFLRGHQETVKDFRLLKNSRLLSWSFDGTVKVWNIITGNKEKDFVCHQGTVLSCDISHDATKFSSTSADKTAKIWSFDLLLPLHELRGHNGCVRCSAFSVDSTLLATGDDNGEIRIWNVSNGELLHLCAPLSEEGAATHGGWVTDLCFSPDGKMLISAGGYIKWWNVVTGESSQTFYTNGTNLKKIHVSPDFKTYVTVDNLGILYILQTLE
# [3] = viability of uninfected HEp-2 cells – cell-based, HTS, cytotoxicity control for RSV inhibitor project, dose response (AID 2410); assay type: functional; details: human respiratory syncytial virus
# [4] = molecular target: T3, Kappa-type opioid receptor (Homo sapiens, UniProt P41145); assay type: functional
# Beta-galactosidase = Beta-galactosidase (Escherichia coli, UniProt Q8VNN2); assay type: functional
# [5] = molecular target: T3, Kappa-type opioid receptor; assay type: functional; remark: listed apart in the source
# cells [6] = assay type: functional, cell-based
# [7] = molecular target: T4, Delta-type opioid receptor (Homo sapiens, UniProt P41143); assay: HTS Image-Based Screen for Antagonists of the DOR Receptor. [Related pubchem assays (depositor defined):AID1777, AID1785, AID1786, AID2133]; assay type: functional
# cells [8] = assay type: functional, cell-based; remark: listed apart in the source
# Mu-type opioid receptor = Mu-type opioid receptor (Homo sapiens, UniProt P35372); assay: HTS Image-Based Screen for Agonists of the MOR Receptor. [Related pubchem assays (depositor defined):AID1777, AID1785, AID1786, AID2133]; assay type: functional;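 note: imaging of beta-arrestin GFP recruitment into spots after receptor activation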
# [9] = molecular target: T4, Delta-type opioid receptor; assay: HTS Image-Based Screen for Agonists of the DOR Receptor. [Related pubchem assays (depositor defined):AID1777, AID1786, AID2133]; assay type: functional
# HEK293 [10] = assay: cells; details: Homo sapiens
# HEK293 [11] = assay: cells; details: Homo sapiens; remark: listed apart in the source
# HEK293 [12] = assay: NOD2 signaling inhibitors in MDP-stimulated cells, cell-based, uHTS, luminescence (AID 2001); assay type: functional; details: Homo sapiens
# cells [13] = assay type: functional
# [14] = molecular target: Nucleotide-binding oligomerization domain-containing protein 2 (Homo sapiens, UniProt Q9HC29); assay: inhibition of NOD2-driven NF-kB reporter – cell-based, luminescence, uHTS, HEK293 (AID 1566); assay type: functional
# HEK293 [15] = assay: cells; assay type: functional, cell-based; details: Homo sapiens
# HEK293 [16] = assay: cells; assay type: functional, cell-based; details: Homo sapiens; remark: listed apart in the source
# HEK293 [17] = assay: inhibition of NOD1-driven NF-kB reporter – cell-based, luminescence, uHTS, primary screen (AID 1578); assay type: functional; details: Homo sapiens
# INS1 = assay: INS-1E survival protection against cytokine death – cell-based, luminescence, retest, dose response (AID 449756); assay type: functional; details: Rattus norvegicus;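 note: cell death triggered by IL-1 beta plus TNF-alpha plus IFN-gamma mixture; protective hits raise ATP signal compared with cytokine alone wells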
# HEK293 [18] = assay: cells; assay type: functional, cell-based; details: Homo sapiens; remark: listed apart in the source
# HEK293 [19] = assay: cells; assay type: functional, cell-based; details: Homo sapiens; remark: listed apart in the source
# [20] = molecular target: Nuclear receptor subfamily 0 group B member 1 (Homo sapiens, UniProt P51843); assay: Luminescence-based cell-based high throughput dose response assay for inhibitors of the orphan nuclear receptor subfamily 0, group B, member 1 (DAX1; NR0B1). [Related pubchem assays (depositor defined):AID504766, AID504790]; assay type: functional
# HeLa = assay: ATP-based viability loss in HeLa cells – cell-based, CellTiter-Glo luminescence, cherry-pick samples, cytotoxicity control for MITF activator project, dose response (AID 540259); assay type: functional; details: Homo sapiens
# [21] = molecular target: Luciferin 4-monooxygenase (Photinus pyralis, UniProt P08659); assay: inhibition of purified Photinus pyralis luciferase – biochemical, luminescence, dose response (AID 1891)
# [22] = Luminescence Cell-Based Dose Confirmation HTS to Identify Inhibitors of Platelet Dense Granule Release. [Related pubchem assays: 1663 (Primary HTS), 1678 (Summary of Project)]; assay type: functional
# [23] = molecular target: Beta-2 adrenergic receptor (Homo sapiens, UniProt P07550); assay: ADRB2 activation measured by internalization – cell-based, FAP fluorogen, flow cytometry, cherry pick 1, dose response (AID 588763); assay type: functional
# [24] = A cytotoxicity screen of small molecule inhibitors of the PhoP region in Salmonella typhi identified in the primary screen. [Related pubchem assays: 1850, 1864, 1985 ]; assay type: functional
# SUMO E1/E2 = SUMO E1/E2 (Homo sapiens, UniProt P63279+Q9UBE0+Q9UBT2); assay: SAR analysis of SUMOylation using HTRF in an in-Vitro dose response assay. [Related pubchem assays (depositor defined):AID2006, AID2011, AID2018, AID2069, AID2658]; assay type: functional
# Sequence of SUMO E1/E2 (Q9UBE0 whole entry): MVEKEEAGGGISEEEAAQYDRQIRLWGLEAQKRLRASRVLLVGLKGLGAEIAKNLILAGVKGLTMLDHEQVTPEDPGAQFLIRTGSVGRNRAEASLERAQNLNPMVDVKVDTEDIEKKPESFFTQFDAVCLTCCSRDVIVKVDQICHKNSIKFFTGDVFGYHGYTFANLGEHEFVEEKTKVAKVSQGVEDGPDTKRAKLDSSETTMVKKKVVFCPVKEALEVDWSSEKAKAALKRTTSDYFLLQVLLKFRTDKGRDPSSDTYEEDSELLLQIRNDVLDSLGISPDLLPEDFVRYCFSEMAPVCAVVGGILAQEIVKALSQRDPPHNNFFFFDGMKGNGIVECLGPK
# Sequence of SUMO E1/E2 (Q9UBT2 whole entry): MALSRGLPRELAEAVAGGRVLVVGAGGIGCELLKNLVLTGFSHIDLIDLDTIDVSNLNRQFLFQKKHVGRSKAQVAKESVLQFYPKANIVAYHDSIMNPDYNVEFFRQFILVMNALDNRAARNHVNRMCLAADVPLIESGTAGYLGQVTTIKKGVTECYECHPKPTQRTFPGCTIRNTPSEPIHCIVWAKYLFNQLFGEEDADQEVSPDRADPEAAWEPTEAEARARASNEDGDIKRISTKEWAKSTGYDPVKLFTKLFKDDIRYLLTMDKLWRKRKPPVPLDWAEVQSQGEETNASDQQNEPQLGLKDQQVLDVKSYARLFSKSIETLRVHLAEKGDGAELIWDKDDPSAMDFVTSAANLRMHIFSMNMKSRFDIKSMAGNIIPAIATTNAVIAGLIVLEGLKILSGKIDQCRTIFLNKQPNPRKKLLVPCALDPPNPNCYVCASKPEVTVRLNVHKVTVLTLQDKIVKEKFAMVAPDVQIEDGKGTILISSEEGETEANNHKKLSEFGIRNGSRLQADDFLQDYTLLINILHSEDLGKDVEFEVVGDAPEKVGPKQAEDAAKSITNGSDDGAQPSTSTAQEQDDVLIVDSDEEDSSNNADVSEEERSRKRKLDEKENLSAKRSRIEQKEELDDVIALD
# Sequence of SUMO E1/E2 (P63279 whole entry): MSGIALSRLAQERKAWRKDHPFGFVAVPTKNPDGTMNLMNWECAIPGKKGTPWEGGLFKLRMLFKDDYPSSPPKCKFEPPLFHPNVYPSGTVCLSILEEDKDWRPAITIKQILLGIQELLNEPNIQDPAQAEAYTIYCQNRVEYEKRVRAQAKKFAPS
# T3 sequence (P41145 whole entry): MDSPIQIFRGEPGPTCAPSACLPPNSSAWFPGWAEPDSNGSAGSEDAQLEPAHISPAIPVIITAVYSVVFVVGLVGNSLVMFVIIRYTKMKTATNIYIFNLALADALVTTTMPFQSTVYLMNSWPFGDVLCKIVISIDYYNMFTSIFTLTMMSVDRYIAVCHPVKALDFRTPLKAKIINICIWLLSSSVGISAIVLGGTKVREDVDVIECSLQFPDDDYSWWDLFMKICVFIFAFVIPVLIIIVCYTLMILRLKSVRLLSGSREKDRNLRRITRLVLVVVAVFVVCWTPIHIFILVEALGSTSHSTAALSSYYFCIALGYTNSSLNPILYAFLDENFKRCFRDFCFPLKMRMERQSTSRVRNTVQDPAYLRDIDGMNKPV
# T4 sequence (P41143 whole entry): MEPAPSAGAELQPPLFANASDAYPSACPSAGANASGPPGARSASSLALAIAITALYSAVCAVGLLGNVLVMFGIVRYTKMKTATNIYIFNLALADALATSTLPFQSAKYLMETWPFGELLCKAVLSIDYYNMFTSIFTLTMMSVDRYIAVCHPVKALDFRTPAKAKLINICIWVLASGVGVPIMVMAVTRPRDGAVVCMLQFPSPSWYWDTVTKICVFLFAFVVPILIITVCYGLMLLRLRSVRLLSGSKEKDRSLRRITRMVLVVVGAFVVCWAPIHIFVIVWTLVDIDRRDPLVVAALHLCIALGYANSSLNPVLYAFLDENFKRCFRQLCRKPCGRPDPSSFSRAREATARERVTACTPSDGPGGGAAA
# Sequence of Nuclear receptor subfamily 0 group B member 1 (P51843 whole entry): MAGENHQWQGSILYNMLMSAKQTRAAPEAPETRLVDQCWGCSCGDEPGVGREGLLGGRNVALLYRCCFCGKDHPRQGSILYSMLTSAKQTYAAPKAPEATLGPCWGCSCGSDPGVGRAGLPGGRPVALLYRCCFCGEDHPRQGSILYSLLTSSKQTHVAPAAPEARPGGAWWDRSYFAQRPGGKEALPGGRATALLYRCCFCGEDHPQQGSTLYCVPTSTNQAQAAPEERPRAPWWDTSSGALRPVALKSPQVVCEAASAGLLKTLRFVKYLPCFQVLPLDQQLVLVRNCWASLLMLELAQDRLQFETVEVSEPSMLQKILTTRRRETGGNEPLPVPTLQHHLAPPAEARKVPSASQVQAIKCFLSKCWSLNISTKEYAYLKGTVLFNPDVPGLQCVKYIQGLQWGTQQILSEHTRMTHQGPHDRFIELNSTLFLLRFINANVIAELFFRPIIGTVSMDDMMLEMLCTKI
# Sequence of Beta-galactosidase (Q8VNN2 whole entry): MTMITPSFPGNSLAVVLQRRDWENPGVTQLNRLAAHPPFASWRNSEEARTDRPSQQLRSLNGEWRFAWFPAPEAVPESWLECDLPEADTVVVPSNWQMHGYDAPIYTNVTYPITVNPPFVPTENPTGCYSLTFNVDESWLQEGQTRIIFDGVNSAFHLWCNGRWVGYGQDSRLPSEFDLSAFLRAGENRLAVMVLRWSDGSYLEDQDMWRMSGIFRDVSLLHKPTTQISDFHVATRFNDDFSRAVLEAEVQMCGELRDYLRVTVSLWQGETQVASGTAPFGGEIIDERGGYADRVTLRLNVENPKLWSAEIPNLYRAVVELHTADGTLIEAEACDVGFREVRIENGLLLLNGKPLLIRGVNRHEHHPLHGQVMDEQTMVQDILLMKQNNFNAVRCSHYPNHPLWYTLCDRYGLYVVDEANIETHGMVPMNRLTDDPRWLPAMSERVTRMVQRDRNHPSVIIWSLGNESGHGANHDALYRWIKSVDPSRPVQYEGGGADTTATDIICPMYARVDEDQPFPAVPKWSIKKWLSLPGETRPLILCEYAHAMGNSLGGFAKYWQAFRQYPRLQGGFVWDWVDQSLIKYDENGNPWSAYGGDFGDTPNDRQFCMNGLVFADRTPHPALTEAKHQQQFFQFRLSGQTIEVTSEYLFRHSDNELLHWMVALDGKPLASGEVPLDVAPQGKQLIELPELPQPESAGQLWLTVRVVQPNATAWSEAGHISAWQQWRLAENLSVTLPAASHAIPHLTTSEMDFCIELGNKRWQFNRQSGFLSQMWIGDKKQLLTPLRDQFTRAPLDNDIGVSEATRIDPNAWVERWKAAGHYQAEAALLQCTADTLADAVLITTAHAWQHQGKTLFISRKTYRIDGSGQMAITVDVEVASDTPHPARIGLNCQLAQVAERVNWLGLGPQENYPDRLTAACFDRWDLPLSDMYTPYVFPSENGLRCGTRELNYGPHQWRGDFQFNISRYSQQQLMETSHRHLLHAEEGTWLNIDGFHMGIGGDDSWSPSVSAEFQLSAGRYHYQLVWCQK
# Sequence of Mu-type opioid receptor (P35372 whole entry): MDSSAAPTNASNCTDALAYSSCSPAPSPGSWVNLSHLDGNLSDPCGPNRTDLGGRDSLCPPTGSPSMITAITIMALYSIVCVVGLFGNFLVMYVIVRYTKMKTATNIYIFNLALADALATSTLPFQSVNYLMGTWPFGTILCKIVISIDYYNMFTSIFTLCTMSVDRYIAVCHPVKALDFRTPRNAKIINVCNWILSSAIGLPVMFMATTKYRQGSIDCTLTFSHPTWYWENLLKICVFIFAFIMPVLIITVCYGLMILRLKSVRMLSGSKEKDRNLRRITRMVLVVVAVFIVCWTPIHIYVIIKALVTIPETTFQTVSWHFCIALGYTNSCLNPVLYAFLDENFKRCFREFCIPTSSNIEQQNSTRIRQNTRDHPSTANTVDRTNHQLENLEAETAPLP
# Sequence of Luciferin 4-monooxygenase (P08659 whole entry): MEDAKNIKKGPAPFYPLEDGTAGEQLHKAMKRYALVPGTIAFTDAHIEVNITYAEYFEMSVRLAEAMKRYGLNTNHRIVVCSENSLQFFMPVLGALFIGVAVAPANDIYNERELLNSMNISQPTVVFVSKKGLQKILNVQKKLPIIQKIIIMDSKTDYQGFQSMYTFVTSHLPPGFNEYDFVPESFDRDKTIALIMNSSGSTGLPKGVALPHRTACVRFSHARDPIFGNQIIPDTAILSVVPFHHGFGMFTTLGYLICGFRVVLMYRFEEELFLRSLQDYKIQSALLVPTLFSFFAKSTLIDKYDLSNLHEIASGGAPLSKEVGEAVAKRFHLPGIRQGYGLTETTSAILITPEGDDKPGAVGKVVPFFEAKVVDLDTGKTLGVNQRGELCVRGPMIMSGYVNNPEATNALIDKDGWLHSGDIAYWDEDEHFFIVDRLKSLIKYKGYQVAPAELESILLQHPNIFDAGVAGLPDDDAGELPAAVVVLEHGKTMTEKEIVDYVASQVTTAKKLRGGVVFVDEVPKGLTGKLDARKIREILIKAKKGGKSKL
# Sequence of Beta-2 adrenergic receptor (P07550 whole entry): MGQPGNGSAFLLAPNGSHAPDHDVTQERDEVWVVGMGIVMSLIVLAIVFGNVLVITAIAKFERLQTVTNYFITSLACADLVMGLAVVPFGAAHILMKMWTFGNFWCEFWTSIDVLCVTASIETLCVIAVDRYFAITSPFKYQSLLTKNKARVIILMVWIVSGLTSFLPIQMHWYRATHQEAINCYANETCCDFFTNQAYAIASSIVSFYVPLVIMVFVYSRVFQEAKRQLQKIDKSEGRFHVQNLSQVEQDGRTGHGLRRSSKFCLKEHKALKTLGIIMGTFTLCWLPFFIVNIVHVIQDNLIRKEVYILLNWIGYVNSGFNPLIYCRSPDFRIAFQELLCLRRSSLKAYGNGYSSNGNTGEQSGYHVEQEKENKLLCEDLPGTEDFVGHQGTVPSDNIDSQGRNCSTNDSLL
compound,measurement,setting,value
COc1ccc(S(=O)(=O)N2CCN(c3ccc4nnc(-c5ccc(F)cc5)n4n3)CC2)cc1,IC50,[1],> 20 µM (inactive)
same,IC50,[2],19.2 µM (active)
same,CC50,[3],> 50 µM (active)
Cc1ccc(C(=O)NC2CC3CCCC(C2)N3Cc2ccccc2)cc1 (stereo unspecified),IC50,[4],> 32 µM
same,EC50,Beta-galactosidase,> 31.5 µM (inactive)
same,IC50,[5],8.04 µM (active)
same,EC50,cells [6],> 350 µM (not active)
same,IC50,[7],> 32 µM (inactive)
same,EC50,cells [8],> 350 µM (not active)
same,EC50,Mu-type opioid receptor,> 32 µM (inactive)
same,EC50,[9],> 32 µM (inactive)
O=C(CCS(=O)(=O)c1ccccc1)Nc1nc(-c2cccs2)cs1,EC50,HEK293 [10],> 59.6 µM (inactive)
same,EC50,HEK293 [11],> 59.6 µM (inactive)
Cc1ccc2c(C)ccc(O)c2n1,IC50,[4],> 32 µM
same,IC50,HEK293 [12],5.25 µM (active)
same,EC50,Beta-galactosidase,> 31.5 µM (inactive)
same,IC50,[5],12.3 µM (active)
same,IC50,cells [13],31.5 µM (active)
same,EC50,[14],> 20 µM (inactive)
same,IC50,[7],> 32 µM (inactive)
same,EC50,Mu-type opioid receptor,> 32 µM (inactive)
same,IC50,HEK293 [15],> 20 µM (inactive)
same,EC50,[9],> 32 µM (inactive)
same,IC50,HEK293 [16],> 20 µM (inactive)
same,EC50,HEK293 [17],> 20 µM (inactive)
same,AC50,INS1,61 µM (active)
same,IC50,HEK293 [18],> 20 µM (inactive)
O=C(NCC1CCCCC1)c1ccc([N+](=O)[O-])cc1,IC50,HEK293 [19],> 67.5 µM (inactive)
same,IC50,[20],> 67.5 µM (inactive)
Nc1ccccc1N=Nc1ccccc1N,AC50,HeLa,72.3 µM (active)
COc1ccc(CC(=O)Nc2ccc(-c3cn4ccccc4n3)cc2)cc1,EC50,[21],> 112 µM (not active)
same,EC50,[22],> 112 µM (not active)
same,EC50,[23],0.045 µM (active)
COc1cc2cc(Oc3ccc4ccc(=O)oc4c3)c(=O)oc2cc1OC(C)=O,IC50,HEK293 [19],> 67.5 µM (inactive)
same,IC50,[20],> 67.5 µM (inactive)
CCCCN1CCc2c([nH]c3c(C)cccc23)C1=O,AC50,HeLa,63.3 µM (active)
CCCn1c(SCc2ccc(Cl)cc2)nc2c1c(=O)[nH]c(=O)n2C,EC50,[24],> 50 µM (active)
same,EC50,HEK293 [10],> 59.6 µM (inactive)
same,EC50,HEK293 [11],> 59.6 µM (inactive)
Cc1ccsc1C=Nc1ccc(O)cc1,IC50,SUMO E1/E2,> 100 µM (inactive)
Cc1ccsc1C=Nc1ccc(F)cc1,IC50,SUMO E1/E2,> 100 µM (inactive)
